Measurements reported in patent US9562066B2, “Oral therapy of necrotizing enterocolitis” (University of Pittsburgh—of the Commonwealth System of …, priority 2012, dated 2017).

Legend:
[1] = test system: murine model for NEC (mNEC); assay: Murine model for NEC (mNEC), oral CpG-ODN during induction (Example 1); format: in vivo, mouse; conditions: for gross morphology: mNEC mice treated orally vs untreated mNEC mice, FIG. 5; for expression of TNFα in the intestines (quantitative RT-PCR) / disruption of the small intestine mucosa (H&E histology): mNEC mice; for expression of TNFα in the intestines (quantitative RT-PCR): oral 1 mg/kg twice per day in formula, day 4 after mNEC induction, FIG. 1; for disruption of the small intestine mucosa (H&E histology): FIG. 2A-F; for body weight: treated vs untreated mNEC mice
Protocol: (§1) A murine model for NEC (“mNEC”) was produced in newborn mice by 4 days of hypoxia and formula gavage (52), which leads to the induction of iNOS, reduced enterocyte proliferation, and disruption of the ileal mucosa (“mNEC” mice) as compared to control mice that were allowed to breast feed (“BF” mice”). Specifically, mNEC was induced in 10-d-old mice (12) using formula gavage [Similac Advance infant formula (Abbott Nutrition):Esbilac canine milk replacer, 2:1] 50 μL/g body weight, five times per day for 4 d, and hypoxia (5% O2, 95% N2) administered for 10 min twice daily for 4 d using a hypoxia chamber (Billups-Rothenberg Inc.). CpG-1 was […]-3′ (SEQ ID NO:6), containing phosphorothioate linkages, known in the art as CpG ODN 1826 (Coley Pharmaceutical Group, Ottawa, Ontario, Canada (Pfizer)). CpG-2 was 5′ […] 3′ (SEQ ID NO:9). CpG-1 or CpG-2 was administered at a dose of 1 mg/kg at a frequency of twice per day in the infant formula described above. Oral administration to breast-fed and NEC animals was achieved by gavage with a silastic foam tipped angiocatheter.
Quantitative RT-PCR was used to assess the effects of orally administered CpG-1 or CpG-2 on expression of the inflammatory cytokine tumor necrosis factor alpha (TNFα) in mNEC versus BF mice. Measurements were made on day 4 after mNEC induction. […] This effect was reflected by histologic evaluation, as depicted in FIG. 2A-F, where the disruption of the small intestine mucosa observed in untreated mNEC mice (FIG. 2B) is ameliorated in mNEC mice orally treated with CpG-1 or CpG-2 (FIGS. 2C and 2D, respectively) to resemble the mucosa of BF control (FIG. 2A).

NFκB = NFκB activation in intestinal mucosa of NFκB-GFP transgenic newborn mice with mNEC, confocal microscopy; format: in vivo, mouse; conditions: mNEC mice vs saline-treated mNEC, FIG. 4A-D
From the text: FIG. 4A-D. Confocal microscopy showing extent of NFκB activation in intestinal mucosa of newborn transgenic mice that express NFκB-GFP. Nuclei are indicated by areas of blue fluorescence. NFκB is detected by a red fluorescent anti-GFP antibody, and is more punctate. Newborn mice were either (A) BF controls treated with saline; (B) mNEC mice treated with saline; or (C) mNEC mice treated with CpG-2. (D) is graphical depiction of results, showing the relative red (GFP) pixel intensity for each animal.
A murine model for NEC (“mNEC”) was produced in newborn mice by 4 days of hypoxia and formula gavage (52), which leads to the induction of iNOS, reduced enterocyte proliferation, and disruption of the ileal mucosa (“mNEC” mice) as compared to control mice that were allowed to breast feed (“BF” mice”). Specifically, mNEC was induced in 10-d-old mice (12) using formula gavage [Similac Advance infant formula (Abbott Nutrition):Esbilac canine milk replacer, 2:1] 50 μL/g body weight, five times per day for 4 d, and hypoxia (5% O2, 95% N2) administered for 10 min twice daily for 4 d using a hypoxia chamber (Billups-Rothenberg Inc.). CpG-1 was […]-3′ (SEQ ID NO:6), containing phosphorothioate linkages, known in the art as CpG ODN 1826 (Coley Pharmaceutical Group, Ottawa, Ontario, Canada (Pfizer)). CpG-2 was 5′ […] 3′ (SEQ ID NO:9). […]

[2] = test system: murine model for NEC (mNEC); assay: Pre-treatment with CpG-1 48 hours prior to attempted induction of mNEC; format: in vivo, mouse; conditions: administered 48 hours prior to attempted induction of mNEC
Protocol: FIG. 6A-C. Effects of pre-treatment of mice prior to induction of NEC. (A) Mucosal iNOS expression (as measured by RT-PCR) in BF controls, untreated mNEC animals, mice pre-treated with CpG-1 for 48 hours prior to attempted induction of NEC (“mNEC Cpg1”) and BF mice treated with CpG-1 for 48 hours. (B) Mucosal TNFα expression (as measured by RT-PCR) in BF controls, untreated mNEC animals, mice pre-treated with CpG-1 for 48 hours prior to attempted induction of NEC (“mNEC Cpg1”) and BF mice treated with CpG-1 for 48 hours. (C) Weight at the time of euthanasia of BF controls, untreated mNEC animals, mice pre-treated with CpG-1 for 48 hours prior to attempted induction of NEC (“mNEC Cpg1”) and BF mice treated with CpG-1 for 48 hours.
as §1

[3] = test system: experimental NEC in neonatal mice; assay: Experimental NEC in neonatal mice (formula feeding and hypoxia), oral CpG (Example 2); format: in vivo, mouse
Protocol: (§2) The effect of CpG-ODN 5′-[…]-3′ (SEQ ID NO:6; ODN 1826) on inhibiting NEC in a murine NEC model in vivo, and in ex vivo human samples from infants undergoing intestinal resection for active NEC or at the time of stoma closure was examined. To determine the level of NEC inhibition, the extent of LPS signaling was determined by the degree of expression of pro-inflammatory cytokines iNOS and TNFα by Quantitative real-time PCR (qRT-PCR).
Committee of the University of Pittsburgh. Swiss Webster mice were obtained from Charles River Laboratories. NEC was induced in 7-10 day old mice as described by Leaphart et al. (21) and Afrazi et al. (54) using formula gavage (a 2:1 ratio of Similac Advance infant formula (Ross Pediatrics):Esbilac canine milk replacer) administered five times/day, along with hypoxia (5% O2, 95% N2) for 10 min in a hypoxic chamber (Billups-Rothenberg, Inc., Del Mar, Calif.) twice daily, for 4 days. This protocol results in the development of patchy necrosis involving the small intestine, which is similar to human NEC, with an increase in circulating cytokines that mimics that observed in human NEC (40). CpG was administered via the oral route at a concentration of 1 mg/kg/day, which included […] of pretreatment prior to the start of the NEC model. Disease severity was determined on histological sections of the terminal ileum by a pediatric pathologist blinded to the study condition according to a scoring system from 0 (normal) to 3 (severe), as described by Leaphart et al. (21).
(§3) The extent of LPS signaling was determined by the degree of pro-inflammatory cytokines, iNOS, and TNFα by Quantitative real-time PCR (qRT-PCR). qRT-PCR was performed using the Bio-Rad CFX96 Real-Time System (Biorad, Hercules, Calif.) using the primers listed in the table below.
Statistical analysis was performed using SPSS 13.0 software. ANOVA was used for comparisons for experiments involving more than two experimental groups. Two-tailed student's t-test was used for comparison for experiments consisting of two experimental groups. For analysis of the severity of NEC, chi-square analysis was performed.

[4] = test system: TLR4-mediated inflammation in human ex vivo intestinal tissue; assay: LPS-induced (TLR4-mediated) inflammation in human ex vivo control and NEC intestinal tissue, qRT-PCR; format: cell-based; conditions: CpG 1 uM, LPS 50 ug/ml 3 hours
Protocol: as §2
All human tissue was obtained and processed as discarded tissue via waiver of consent with approval from the University of Pittsburgh Institutional Review Board and in accordance with the University of Pittsburgh anatomical tissue procurement guidelines. Human tissue was obtained from infants undergoing intestinal resection for active NEC or at the time of stoma closure (healed NEC at the time of stoma closure). After initial review by the duty pathologist to ensure that adequate diagnostic information was obtained from the gross tissue specimen, the intestinal resection was divided into multiple pieces, and treated in triplicate with media alone, LPS 50 ug/ml, CpG (1 uM) alone or LPS+CpG as described by Neal et al. (55). After 3 hours of treatment, tissue was processed for qRT-PCR, and assessed for the expression of IL1β, TLR4, iNOS or IL-6.
as §3

[5] = control tissue (healed NEC at stoma closure), FIG. 8A

CpG-2: CpG-ODN 5′ TCGTCGTTTTGTCGTTCCTGACGTT 3′ (SEQ ID NO:9) (listed as DNA, chemistry not given here)
disease severity ([1]; mNEC animals, oral treatment, FIG. 3A): trended towards but did not reach statistical significance | gross morphology [1]: much more robust | expression of TNFα in the intestines (quantitative RT-PCR) [1]: brought the levels of TNFα in mNEC animals down to approach the level in BF controls | disruption of the small intestine mucosa (H&E histology) ([1]; oral treatment): ameliorated | body weight [1]: higher body weight | nuclear localization of NFκB (punctate red fluorescence) (NFκB): largely absent

CpG ODN 1826 [CpG-1]
gross morphology [1]: much more robust | inducible nitric oxide synthase (iNOS) level (qRT-PCR) ([1]; mNEC mice versus BF controls, oral CpG, FIG. 3B): substantially reduced | expression of TNFα in the intestines (quantitative RT-PCR) [1]: brought the levels of TNFα in mNEC animals down to approach the level in BF controls | disruption of the small intestine mucosa (H&E histology) ([1]; oral treatment): ameliorated | body weight [1]: higher body weight | mucosal expression of iNOS (RT-PCR) ([2]; FIG. 6A): reduced almost to baseline levels | mucosal expression of TNFα (RT-PCR) ([2]; FIG. 6B): reduced almost to baseline levels | weight at the time of euthanasia ([2]; FIG. 6C): approached controls | expression of iNOS in the intestinal mucosa (qRT-PCR) ([3]; oral 1 mg/kg, formula-fed NEC mice, FIG. 7B(i), p<0.05 FF+CpG vs FF): reduced | expression of IL-6 in the intestinal mucosa (qRT-PCR) ([3]; oral 1 mg/kg, formula-fed NEC mice, FIG. 7B(ii), p<0.05 FF+CpG vs FF): reduced | NEC severity score ([3]; oral 1 mg/kg, score 0 (normal) to 3 (severe), FIG. 7B(iii)): reduced | intestinal inflammation (ileum photomicrographs and gross images) ([3]; oral 1 mg/kg/day incl. 4 days pretreatment, formula-fed NEC mice, FIG. 7A): attenuates intestinal inflammation | LPS-induced increase in expression of IL1β (qRT-PCR) [4, 5]: reduced | LPS-induced increase in expression of TLR4 (qRT-PCR) [4, 5]: reduced | LPS-induced expression of IL-6 (qRT-PCR) ([4]; human NEC tissue, FIG. 8B): reduced | LPS-induced expression of iNOS (qRT-PCR) ([4]; human NEC tissue, FIG. 8B): reduced
